These are literature values, as cited in patent EP4197526A1, “HYDROGEL FORMULATION COMPRISING ZEBULARINE AND RETIONIC ACID” (Uniwersytet Gdanski, priority 2021, dated 2023).

Values joined by “and” are separate entries in the source; they are usually repeats but may differ in a detail not shown here. Equal values may be shown once.

For this data set the following is noted: literature data.

As to `CC1=C(/C=C/C(C)=C/C=C/C(C)=C/C(=O)O)C(C)(C)CCC1` [retinoic acid], the solubility in water is 0.000063 mg/ml and 0.21 microM. Take `O=c1ncccn1[C@@H]1O[C@H](CO)[C@@H](O)[C@H]1O` [zebularine]: the solubility in water result was “up to 50 mg/ml”.
